Experimental data as given in patent US20170066780A1, “INHIBITORS OF EZH2” (Eli Lilly and Company, priority 2015, published 2017).

How the values were obtained:
[1] = system: cell tri-methylated H3K27 in Karpas-422 (EZH2 Y641N) cells; assay: H3K27Me3 cell-based ELISA, Karpas-422; details: Homo sapiens; Karpas-422, 48 hr
Experimental: The purpose of this assay is to evaluate the ability of a compound to inhibit the functional activity of EZH2 in cells, via measurement of levels of cell tri-methylated H3K27. Plate Karpas-422 (EZH2 Y641N) cells at 5,000 cells/100 μL/well in black 96-well BD BIOCOAT® Cellware, Poly-Lysine plates (BD Biosciences, Cat#354640). Prepare compound plates in a NUNC™ 96-Well Polypropylene MICROWELL™ Plate (Thermo Scientific Cat# #249944) with the addition of 40 μL/well of 10 mM compound (representing starting final concentration of 20 μM) or 40 μL DMSO, then prepare serial dilutions through the transfer of 20 μL from one well to the next. Add 5 μL of test compound to 245 μL/well of growth media in a separate NUNC™ 96-Well Polypropylene MICROWELL™ Plate, and stamp 11 μL of the compound/media mix onto the cell plates. Place cell plates in a 37° C. incubator for 48 hr. Remove plates from the incubator, place the plates at room temperature for 15-20 min, and spin down the plates at 1000 rpm for 5 min Fix cells with 30 μL 16% paraformaldehyde for 15 min at RT. Remove the paraformaldehyde and permeabilize cells with 100 μL/well PBS minus calcium or magnesium (−/−) containing 0.1% TRITON® X-100 for 20 min at RT. Wash plates with PBS (−/−) (2×), followed by incubation for 2 hr at RT of 50 μL/well of primary antibody solution (Diagenode anti-H3K27me3 MAb-181-050; 1:3000 dilution in PBS plus calcium and magnesium (+/+) containing 1% BSA). Wash plates with PBS−/−, (3×) followed by incubation with 50 μL/well secondary antibody solution (Invitrogen goat anti-mouse IgG Alexa 488, Cat# A11001; 1:1000 dilution in PBS+/+) for 1 hr at RT in the dark. Wash plates with PBS−/−, (3×), followed by adding 50 μL/well of 5 μg/mL propidium iodide (Invitrogen; Cat# p3566) staining solution in PBS containing 200 μg/mL RNase (Invitrogen; Cat#12091021). Cover plates with black plate seals and scan on ACUMEN® laser scanning cytometer (TTP Lab Tech) with Ex 488 nm/Em 505 nm-530 nm (H3K27m3 signal) and LP655 nm (cell nuclear signal). […]

[2] = system: cell tri-methylated H3K27 in MDA MB-231; assay: H3K27Me3 cell-based ELISA, MDA MB-231; details: Homo sapiens
Karpas-422 cells = assay: Karpas-422 proliferation assay; type: cell-based; details: Homo sapiens, KARPAS-422, 168 h; 7 days, Cell Titer GLO
Experimental: Plate Karpas-422 cells at a density of 5000 cells/100 μL/well in 96 well, black 96-well BD BIOCOAT® Cellware, Poly-Lysine plates (BD Biosciences, Cat#354640). 40 μL of 10 mM test compound (representing starting final concentration of 20 μM) or add 100% DMSO to a NUNC™ 96-Well Polypropylene MICROWELL™ Plate (Thermo Scientific Cat# #249944). Perform serial dilutions through the transfer of 20 μL from one well to the next. Add 5 μL of compound to a 245 μL/well of growth media in a separate NUNC™ 96-Well Polypropylene MICROWELL™ Plate, and stamp 11 μL of the compound/media mix onto the cell plates. Incubate cell plates at 37° C. for 7 days. Add 100 μL/well of Cell Titer GLO® reagent (Promega, Cat# G7671) to the cell plates. Shake 2 min and measure luminescence using a plate reader. Compounds within the scope of the invention may be tested in this assay substantially as described above.

[3] = biological target: WT 5-mer EZH2 (PRC2 complex) (Homo sapiens, UniProt Q15910); assay: EZH2 WT 384-well biochemical assay (SPA, 3H-SAM)
Experimental: (§1) The purpose of this assay is to measure the compound effect on the catalytic activity of EZH2 WT/Y641N in the context of the PRC2 complex.
(§2) Express FLAG-tagged EZH2 or EZH2 Y641N as the PRC2 5-membered (5-mer) complex consisting of EZH2, EED, SUZ12, RBBP4 and AEBP proteins using a baculovirus expression system in Sf9 cells, and purify using FLAG® Affinity Purification (Sigma-Aldrich).
(§3) Place 20 μL 100% DMSO in dilution wells. Perform 3× serial dilutions by transferring 10 μL from one well to the next. […] In the WT assay, dispense 15 μL of the enzyme/tri-methyl H3 co-activator peptide mix into the assay plate, followed by 5 μL of the biotin H3 peptide substrate/^3H-SAM mix. Seal the plates and shake for 2 hr at RT. […] Plot normalized data and render curves using […] ® Condoseo as % inhibition (y axis) vs. log compound concentration (x-axis), and determine IC50 values using a 4-parameter nonlinear logistic fitting algorithm.

[4] = biological target: mut 5-mer EZH2 (EZH2 Y641N, PRC2 complex) (Homo sapiens, UniProt Q15910, Y641N); assay: EZH2 Y641N mut 384-well biochemical assay (SPA, 3H-SAM)
mut 5-mer EZH2 (EZH2 Y641N, PRC2 complex), sequence (Q15910 whole entry Y641N): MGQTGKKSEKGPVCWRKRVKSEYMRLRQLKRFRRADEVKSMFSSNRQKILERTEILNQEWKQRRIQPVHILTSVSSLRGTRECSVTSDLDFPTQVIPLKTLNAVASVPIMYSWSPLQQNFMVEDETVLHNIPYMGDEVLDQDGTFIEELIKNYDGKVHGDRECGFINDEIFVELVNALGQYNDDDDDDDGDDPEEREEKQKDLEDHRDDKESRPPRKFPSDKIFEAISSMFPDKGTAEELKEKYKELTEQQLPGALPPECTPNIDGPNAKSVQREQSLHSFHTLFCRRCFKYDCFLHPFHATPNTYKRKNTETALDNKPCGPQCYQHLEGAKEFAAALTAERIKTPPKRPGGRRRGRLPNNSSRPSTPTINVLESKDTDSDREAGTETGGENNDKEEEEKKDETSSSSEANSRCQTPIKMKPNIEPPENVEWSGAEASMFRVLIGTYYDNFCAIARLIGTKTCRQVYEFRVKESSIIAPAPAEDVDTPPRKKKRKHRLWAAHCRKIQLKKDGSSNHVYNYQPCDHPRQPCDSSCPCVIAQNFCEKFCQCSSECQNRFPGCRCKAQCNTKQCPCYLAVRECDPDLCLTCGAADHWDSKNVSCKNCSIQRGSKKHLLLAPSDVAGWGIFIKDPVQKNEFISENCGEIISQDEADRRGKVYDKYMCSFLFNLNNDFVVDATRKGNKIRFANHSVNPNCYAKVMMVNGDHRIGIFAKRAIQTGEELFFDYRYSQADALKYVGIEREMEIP
mut 5-mer EZH2 (EZH2 Y641N, PRC2 complex), sequence (O75530 whole entry partner): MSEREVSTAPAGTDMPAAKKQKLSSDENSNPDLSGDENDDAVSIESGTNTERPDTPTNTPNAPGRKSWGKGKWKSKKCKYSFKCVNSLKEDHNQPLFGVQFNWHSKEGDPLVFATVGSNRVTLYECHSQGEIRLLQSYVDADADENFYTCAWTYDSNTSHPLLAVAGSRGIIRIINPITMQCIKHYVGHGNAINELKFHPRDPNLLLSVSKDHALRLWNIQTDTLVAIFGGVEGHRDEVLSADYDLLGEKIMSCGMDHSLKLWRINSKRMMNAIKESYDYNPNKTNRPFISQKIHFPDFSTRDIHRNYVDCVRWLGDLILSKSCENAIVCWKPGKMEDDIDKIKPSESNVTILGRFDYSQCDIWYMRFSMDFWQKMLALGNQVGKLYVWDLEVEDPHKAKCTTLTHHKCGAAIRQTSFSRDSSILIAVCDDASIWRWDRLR
mut 5-mer EZH2 (EZH2 Y641N, PRC2 complex), sequence (Q15022 whole entry partner): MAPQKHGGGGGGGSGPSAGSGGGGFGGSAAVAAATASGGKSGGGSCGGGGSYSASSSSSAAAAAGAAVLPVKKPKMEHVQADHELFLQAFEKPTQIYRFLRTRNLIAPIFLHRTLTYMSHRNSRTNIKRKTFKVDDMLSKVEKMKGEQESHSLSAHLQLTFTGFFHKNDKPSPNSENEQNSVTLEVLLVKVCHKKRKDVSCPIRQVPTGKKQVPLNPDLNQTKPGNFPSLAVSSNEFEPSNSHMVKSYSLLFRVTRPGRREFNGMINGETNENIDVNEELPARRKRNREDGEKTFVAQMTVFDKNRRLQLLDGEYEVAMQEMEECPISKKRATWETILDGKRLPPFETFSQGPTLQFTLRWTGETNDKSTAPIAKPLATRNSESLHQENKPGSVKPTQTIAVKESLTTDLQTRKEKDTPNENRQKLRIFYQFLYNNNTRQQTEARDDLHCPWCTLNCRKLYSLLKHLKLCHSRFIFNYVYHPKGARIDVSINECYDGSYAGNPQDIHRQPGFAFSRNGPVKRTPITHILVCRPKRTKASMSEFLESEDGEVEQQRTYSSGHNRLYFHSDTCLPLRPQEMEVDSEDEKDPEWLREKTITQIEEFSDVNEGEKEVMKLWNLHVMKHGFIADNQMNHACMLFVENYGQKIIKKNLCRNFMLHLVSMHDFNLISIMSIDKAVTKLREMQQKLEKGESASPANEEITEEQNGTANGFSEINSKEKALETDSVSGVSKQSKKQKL
mut 5-mer EZH2 (EZH2 Y641N, PRC2 complex), sequence (Q09028 whole entry partner): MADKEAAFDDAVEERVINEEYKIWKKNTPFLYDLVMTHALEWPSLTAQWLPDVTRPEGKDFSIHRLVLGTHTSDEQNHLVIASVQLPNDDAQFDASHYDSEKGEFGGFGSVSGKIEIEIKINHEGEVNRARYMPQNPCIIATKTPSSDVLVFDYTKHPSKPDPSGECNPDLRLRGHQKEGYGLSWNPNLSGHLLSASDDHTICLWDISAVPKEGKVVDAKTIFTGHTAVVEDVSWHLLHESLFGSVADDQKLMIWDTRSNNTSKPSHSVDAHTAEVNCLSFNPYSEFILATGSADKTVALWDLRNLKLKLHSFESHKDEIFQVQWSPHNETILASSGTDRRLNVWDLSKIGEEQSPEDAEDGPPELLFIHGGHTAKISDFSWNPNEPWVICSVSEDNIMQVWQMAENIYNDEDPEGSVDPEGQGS
mut 5-mer EZH2 (EZH2 Y641N, PRC2 complex), sequence (Q6ZN18 whole entry partner): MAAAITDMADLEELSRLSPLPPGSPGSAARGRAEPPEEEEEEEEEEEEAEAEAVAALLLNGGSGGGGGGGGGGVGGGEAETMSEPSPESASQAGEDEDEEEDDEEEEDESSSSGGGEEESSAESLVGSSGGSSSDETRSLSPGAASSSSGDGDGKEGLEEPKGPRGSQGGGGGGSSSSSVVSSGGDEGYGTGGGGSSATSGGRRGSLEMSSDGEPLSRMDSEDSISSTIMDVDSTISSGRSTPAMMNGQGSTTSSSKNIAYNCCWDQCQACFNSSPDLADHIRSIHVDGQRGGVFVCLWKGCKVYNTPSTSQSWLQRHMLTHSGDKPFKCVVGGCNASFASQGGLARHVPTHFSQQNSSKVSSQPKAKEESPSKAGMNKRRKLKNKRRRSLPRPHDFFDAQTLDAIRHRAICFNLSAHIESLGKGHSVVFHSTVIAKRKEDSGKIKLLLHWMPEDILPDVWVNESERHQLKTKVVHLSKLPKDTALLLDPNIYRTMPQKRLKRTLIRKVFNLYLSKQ
Experimental: as §1, §2, §3

WT 5-mer EZH2 (PRC2 complex), sequence (Q15910 whole entry): as the sequence (Q15910 whole entry Y641N) above, with N641Y counted along it
WT 5-mer EZH2 (PRC2 complex), sequence (O75530 whole entry partner): as the sequence (O75530 whole entry partner) above
WT 5-mer EZH2 (PRC2 complex), sequence (Q15022 whole entry partner): as the sequence (Q15022 whole entry partner) above
WT 5-mer EZH2 (PRC2 complex), sequence (Q09028 whole entry partner): as the sequence (Q09028 whole entry partner) above
WT 5-mer EZH2 (PRC2 complex), sequence (Q6ZN18 whole entry partner): as the sequence (Q6ZN18 whole entry partner) above

Row | SMILES | IC50 [1] [nM] | IC50 [2] [nM] | IC50 (Karpas-422 cells) [nM] | IC50 [3] [nM] | IC50 [4] [nM] | inhibition of the methyltransferase activity of EZH2 (in words) ([3]; recombinant WT/mut EZH2 in the context of the PRC2 complex)
1 | CCN(c1sc2c(c1C)C(=O)N(Cc1c(C)cc(C)[nH]c1=O)CC2)[C@H]1CC[C@H](N2CC(OC)C2)CC1 [Example 22, 5-[(4,6-Dimethyl-2-oxo-1,2-dihydropyridin-3-yl)methyl]-2-{ethyl[trans-4-(3-methoxyazetidin-1-yl)cyclohexyl]amino}-3-methyl-6,7-dihydrothieno[3,2-c]pyridin-4(5H)-one] | 0.0148 ± 0.0147 | < 1 | 84.5 ± 42.7 | 3.29 ± 1.24 | 7.21 | –
2 | Cc1cc(C)c(CN2CCc3sc(N(C)[C@H]4CC[C@H](N5CC(n6cccn6)C5)CC4)c(C)c3C2=O)c(=O)[nH]1 [Example 20, 5-[(4,6-Dimethyl-2-oxo-1,2-dihydropyridin-3-yl)methyl]-3-methyl-2-(methyl{trans-4-[3-(1H-pyrazol-1-yl)azetidin-1-yl]cyclohexyl}amino)-6,7-dihydrothieno[3,2-c]pyridin-4(5H)-one] | – | – | – | – | – | demonstrate inhibition
